This passage reports IC50 results from patent publication US11078197B2, “5-membered and bicyclic heterocyclic amides as inhibitors of rock” (BRISTOL-MYERS SQUIBB COMPANY, priority 2017, dated 2021).

Sequence of ROCK2 (O75116 whole entry, species assumed): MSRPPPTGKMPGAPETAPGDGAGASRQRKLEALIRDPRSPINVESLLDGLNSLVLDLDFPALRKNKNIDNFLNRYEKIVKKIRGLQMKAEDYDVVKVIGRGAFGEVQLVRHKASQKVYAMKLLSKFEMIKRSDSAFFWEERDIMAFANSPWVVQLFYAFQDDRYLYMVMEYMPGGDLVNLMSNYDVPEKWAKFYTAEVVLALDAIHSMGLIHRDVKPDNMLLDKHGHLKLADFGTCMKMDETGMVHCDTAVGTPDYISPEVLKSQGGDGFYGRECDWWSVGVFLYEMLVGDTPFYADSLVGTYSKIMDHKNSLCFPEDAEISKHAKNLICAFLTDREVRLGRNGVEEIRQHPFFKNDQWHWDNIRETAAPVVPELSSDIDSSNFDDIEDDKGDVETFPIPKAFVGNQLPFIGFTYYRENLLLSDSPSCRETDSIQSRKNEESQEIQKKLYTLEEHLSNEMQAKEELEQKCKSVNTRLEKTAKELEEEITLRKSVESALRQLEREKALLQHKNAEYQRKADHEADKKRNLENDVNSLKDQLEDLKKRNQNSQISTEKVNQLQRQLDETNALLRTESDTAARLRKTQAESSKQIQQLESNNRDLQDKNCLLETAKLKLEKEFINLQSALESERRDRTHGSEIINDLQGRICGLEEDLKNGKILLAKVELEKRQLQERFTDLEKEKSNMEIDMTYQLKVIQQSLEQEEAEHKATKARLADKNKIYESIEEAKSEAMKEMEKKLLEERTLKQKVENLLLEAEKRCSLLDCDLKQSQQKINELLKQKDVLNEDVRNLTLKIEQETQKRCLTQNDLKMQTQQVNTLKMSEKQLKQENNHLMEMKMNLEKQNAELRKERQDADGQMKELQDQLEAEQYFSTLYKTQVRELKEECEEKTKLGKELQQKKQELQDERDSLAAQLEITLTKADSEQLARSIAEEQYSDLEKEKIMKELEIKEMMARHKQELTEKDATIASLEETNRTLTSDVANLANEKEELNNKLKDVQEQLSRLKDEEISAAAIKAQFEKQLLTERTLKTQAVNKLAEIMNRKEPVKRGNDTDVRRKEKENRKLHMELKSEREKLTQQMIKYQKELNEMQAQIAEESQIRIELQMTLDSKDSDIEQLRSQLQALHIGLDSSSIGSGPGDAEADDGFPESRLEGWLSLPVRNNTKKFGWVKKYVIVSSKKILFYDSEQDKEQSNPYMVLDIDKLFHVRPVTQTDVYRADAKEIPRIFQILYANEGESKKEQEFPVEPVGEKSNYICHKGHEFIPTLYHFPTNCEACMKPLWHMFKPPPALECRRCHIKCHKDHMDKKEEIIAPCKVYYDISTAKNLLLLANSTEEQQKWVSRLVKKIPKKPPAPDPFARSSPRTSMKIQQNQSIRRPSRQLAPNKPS

The assay has as its target ROCK2 (Homo sapiens (Human), UniProt O75116). The assay can be described thus: ROCK2 assay (peptide phosphorylation, LABCHIP 3000 Reader). The note with it: 5 μM ATP, 1.5 μM peptide substrate, dose-response. It counts as biochemical. As to the method: After incubation, the reaction was terminated by the addition of EDTA and the phosphorylated and non-phosphorylated peptides separated using a LABCHIP®3000 Reader (Caliper Life Sciences). […] Compounds were tested in dose-response format, and the inhibition of kinase activity was calculated at each concentration of compound. […] Representative Examples were tested in the ROCK2 assay described above and found having ROCK2 inhibitory activity.
As for `NC(=O)c1c(O[C@H]2C[C@@]3(C[C@H](NC(=O)c4cnn5cc(OCC(O)(C(F)(F)F)C(F)(F)F)ccc45)C3)C2)nn2ccccc12` (some centres unmarked) [Example 123, 2-{[(4s)-6-{6-[3,3,3-trifluoro-2-hydroxy-2-(trifluoromethyl)propoxy]pyrazolo[1,5-a]pyridine-3-amido}spiro[3.3]heptan-2-yl]oxy}pyrazolo[1,5-a]pyridine-3-carboxamide], inhibition was half-maximal at 0.241 µM (IC50). Take `COc1ccc2c(C(N)=O)c(O[C@H]3C[C@@]4(C[C@H](NC(=O)c5nn(C(F)F)c6cc(OCC(C)(C)O)ccc56)C4)C3)nn2c1` (some centres unmarked) [Example 124, 1-(difluoromethyl)-6-(2-hydroxy-2-methylpropoxy)-N-[(4s)-6-({3-carbamoyl-6-methoxypyrazolo[1,5-a]pyridin-2-yl}oxy)spiro[3.3]heptan-2-yl]-1H-indazole-3-carboxamide]: the IC50 is 0.0904 µM. For the molecule `COc1ccc2c(C(N)=O)c(O[C@H]3C[C@@]4(C[C@H](NC(=O)c5cnn6cc(OCC(F)F)ccc56)C4)C3)nn2c1` (some centres unmarked) [Example 125, 6-methoxy-2-{[(4s)-6-[6-(2,2-difluoroethoxy)pyrazolo[1,5-a]pyridine-3-amido]spiro[3.3]heptan-2-yl]oxy}pyrazolo[1,5-a]pyridine-3-carboxamide], half-maximal inhibition (IC50) was put at 0.316 µM. As to `Cc1ccc2c(C(N)=O)c(O[C@H]3C[C@@]4(C[C@H](NC(=O)c5nn(C(F)F)c6cc(OCC(C)(C)O)ccc56)C4)C3)nn2c1` (some centres unmarked) [Example 126, 1-(difluoromethyl)-6-(2-hydroxy-2-methylpropoxy)-N-[(4s)-6-({3-carbamoyl-6-methylpyrazolo[1,5-a]pyridin-2-yl}oxy)spiro[3.3]heptan-2-yl]-1H-indazole-3-carboxamide], the midpoint of inhibition, the IC50, lay at 0.0464 µM. The same measure for `NC(=O)c1c(O[C@H]2C[C@@]3(C[C@H](NC(=O)c4cnn5cc(OCC(F)F)ccc45)C3)C2)nn2cc(F)ccc12` (some centres unmarked) [Example 127, 6-fluoro-2-{[(4s)-6-[6-(2,2-difluoroethoxy)pyrazolo[1,5-a]pyridine-3-amido]spiro[3.3]heptan-2-yl]oxy}pyrazolo[1,5-a]pyridine-3-carboxamide]: 0.113 µM; for `CC(C)(O)COc1ccc2c(C(=O)N[C@H]3C[C@]4(C3)C[C@H](Oc3nn5cc(F)ccc5c3C(N)=O)C4)nn(C(F)F)c2c1` (some centres unmarked) [Example 128, 1-(difluoromethyl)-6-(2-hydroxy-2-methylpropoxy)-N-[(4s)-6-({3-carbamoyl-6-fluoropyrazolo[1,5-a]pyridin-2-yl}oxy)spiro[3.3]heptan-2-yl]-1H-indazole-3-carboxamide]: 0.0832 µM. Consider `Cc1c(C(=O)N[C@H]2C[C@]3(C2)C[C@H](Oc2nn4cc(F)ccc4c2C(N)=O)C3)cnn1-c1ccc(C#N)cc1` (some centres unmarked) [Example 129, 1-(4-cyanophenyl)-5-methyl-N-[(4s)-6-({3-carbamoyl-6-fluoropyrazolo[1,5-a]pyridin-2-yl}oxy)spiro[3.3]heptan-2-yl]-1H-pyrazole-4-carboxamide], for which the IC50 was found to be 0.702 µM. `CC(C)(O)COc1ccc2c(C(=O)N[C@H]3C[C@]4(C3)C[C@H](Oc3nn5cc(C(F)(F)F)ccc5c3C(N)=O)C4)nn(C(F)F)c2c1` (some centres unmarked) [Example 130, 1-(difluoromethyl)-6-(2-hydroxy-2-methylpropoxy)-N-[(4s)-6-{[3-carbamoyl-6-(trifluoromethyl)pyrazolo[1,5-a]pyridin-2-yl]oxy}spiro[3.3]heptan-2-yl]-1H-indazole-3-carboxamide] came in with an IC50 of 0.611 µM. Turning to `NC(=O)c1c(O[C@H]2C[C@@]3(C[C@H](NC(=O)c4cnn5cc(OCC(F)F)ccc45)C3)C2)nn2cc(C(F)(F)F)ccc12` (some centres unmarked) [Example 131, 2-{[(4s)-6-[6-(2,2-difluoroethoxy)pyrazolo[1,5-a]pyridine-3-amido]spiro[3.3]heptan-2-yl]oxy}-6-(trifluoromethyl)pyrazolo[1,5-a]pyridine-3-carboxamide], the IC50 is 1.17 µM. In turn, `Cc1ccn2nc(O[C@H]3C[C@@]4(C[C@H](NC(=O)c5nn(C(F)F)c6cc(OCC(C)(C)O)ccc56)C4)C3)c(C(N)=O)c2c1` (some centres unmarked) [Example 132, 1-(difluroomethyl)-6-(2-hydroxy-2-methylpropoxy)-N-[(4s)-6-({3-carbamoyl-5-methylpyrazolo[1,5-a]pyridin-2-yl}oxy)spiro[3.3]heptan-2-yl]-1H-indazole-3-carboxamide] registered an IC50 of 0.223 µM. Compared with the last molecule, the IC50 is about 5.2-fold lower. With `Cc1cccc2c(C(N)=O)c(O[C@H]3C[C@@]4(C[C@H](NC(=O)c5nn(C(F)F)c6cc(OCC(C)(C)O)ccc56)C4)C3)nn12` (some centres unmarked) [Example 133, 1-(difluoromethyl)-6-(2-hydroxy-2-methylpropoxy)-N-[(4s)-6-({3-carbamoyl-7-methylpyrazolo[1,5-a]pyridin-2-yl}oxy)spiro[3.3]heptan-2-yl]-1H-indazole-3-carboxamide], the IC50 turned out to be 0.0202 µM. This IC50 is about 11-fold lower than that of the molecule before. With `CC(C)(O)COc1ccc2c(C(=O)N[C@H]3C[C@]4(C3)C[C@H](Oc3nn5c(-c6ccccc6)cccc5c3C(N)=O)C4)nn(C(F)F)c2c1` (some centres unmarked) [Example 134, 1-(difluoromethyl)-6-(2-hydroxy-2-methylpropoxy)-N-[(4s)-6-({3-carbamoyl-7-phenylpyrazolo[1,5-a]pyridin-2-yl}oxy)spiro[3.3]heptan-2-yl]-1H-indazole-3-carboxamide], the IC50 was found to be 0.143 µM. Molecule `CC(C)(O)COc1ccc2c(C(=O)N[C@H]3C[C@]4(C3)C[C@H](Oc3nn5cc(-c6ccc(F)nc6)ccc5c3C(N)=O)C4)nn(C(F)F)c2c1` (some centres unmarked) [Example 135, 1-(difluoromethyl)-6-(2-hydroxy-2-methylpropoxy)-N-[(4s)-6-{[3-carbamoyl-6-(6-fluoropyridin-3-yl)pyrazolo[1,5-a]pyridin-2-yl]oxy}spiro[3.3]heptan-2-yl]-1H-indazole-3-carboxamide] displayed an IC50 of 0.39 µM.

The molecule `CC(C)(O)COc1ccc2c(C(=O)N[C@H]3C[C@]4(C3)C[C@H](Oc3nn5ccc(-c6ccc(F)nc6)cc5c3C(N)=O)C4)nn(C(F)F)c2c1` (some centres unmarked) [Example 136, 1-(difluoromethyl)-6-(2-hydroxy-2-methylpropoxy)-N-[(4s)-6-{[3-carbamoyl-5-(6-fluoropyridin-3-yl)pyrazolo[1,5-a]pyridin-2-yl]oxy}spiro[3.3]heptan-2-yl]-1H-indazole-3-carboxamide] yielded an IC50 of 0.112 µM. In turn, `CC(C)(O)COc1ccc2c(C(=O)N[C@H]3C[C@]4(C3)C[C@H](Oc3nn5ccc(-c6ccccc6)cc5c3C(N)=O)C4)nn(C(F)F)c2c1` (some centres unmarked) [Example 137, 1-(difluoromethyl)-6-(2-hydroxy-2-methylpropoxy)-N-[(4s)-6-({3-carbamoyl-5-phenylpyrazolo[1,5-a]pyridin-2-yl}oxy)spiro[3.3]heptan-2-yl]-1H-indazole-3-carboxamide] gave an IC50 of 0.15 µM. This IC50 and that of the molecule before are within 1.5-fold of each other. The same measure for `COc1cccc2c(C(N)=O)c(O[C@H]3C[C@@]4(C[C@H](NC(=O)c5nn(C(F)F)c6cc(OCC(C)(C)O)ccc56)C4)C3)nn12` (some centres unmarked) [Example 138, 1-(difluoromethyl)-6-(2-hydroxy-2-methylpropoxy)-N-[(4s)-6-({3-carbamoyl-7-methoxypyrazolo[1,5-a]pyridin-2-yl}oxy)spiro[3.3]heptan-2-yl]-1H-indazole-3-carboxamide]: 0.022 µM.

Molecule `CC(C)CC1NC(=O)N([C@H]2CC3(C[C@H](Oc4nn5ccccc5c4C(N)=O)C3)C2)C1=O` (stereo partly drawn) [Example 139, 2-(((2S,4s,6S)-6-(4-isobutyl-2,5-dioxoimidazolidin-1-yl)spiro[3.3]heptan-2-yl)oxy)pyrazolo[1,5-a]pyridine-3-carboxamide] had an IC50 of 0.208 µM.

Regarding `CC(CC1NC(=O)N([C@H]2C[C@@]3(C[C@H](Oc4nn5ccccc5c4C(N)=O)C3)C2)C1=O)C(F)(F)F` (some centres unmarked) [Example 140, 2-{[(4s)-6-[2,5-dioxo-4-(3,3,3-trifluoro-2-methylpropyl)imidazolidin-1-yl]spiro[3.3]heptan-2-yl]oxy}pyrazolo[1,5-a]pyridine-3-carboxamide], the IC50 stood at 0.0621 µM. Molecule `CC(CC1NC(=O)N([C@H]2C[C@@]3(C[C@H](Oc4nn5ccccc5c4C(N)=O)C3)C2)C1=O)C(F)(F)F` (some centres unmarked) [Example 141, 2-{[(4s)-6-[2,5-dioxo-4-(3,3,3-trifluoro-2-methylpropyl)imidazolidin-1-yl]spiro[3.3]heptan-2-yl]oxy}pyrazolo[1,5-a]pyridine-3-carboxamide] displayed a concentration for half-maximal inhibition (IC50) of 0.203 µM. For the molecule `CC(C)CNc1nnc(C(=O)N[C@H]2C[C@]3(C2)C[C@H](Oc2nc4c(cc2C(N)=O)COCC4)C3)s1` (some centres unmarked) [Example 142, 5-[(2-methylpropyl)amino]-N-[(4s)-6-({3-carbamoyl-5H,7H,8H-pyrano[4,3-b]pyridin-2-yl}oxy)spiro[3.3]heptan-2-yl]-1,3,4-thiadiazole-2-carboxamide], the IC50 is 0.0603 µM. `NC(=O)c1cc2c(nc1O[C@H]1C[C@@]3(C[C@H](NC(=O)c4cccc(OC(F)(F)F)c4)C3)C1)CCOC2` (some centres unmarked) [Example 143, 2-{[(4s)-6-[3-(trifluoromethoxy)benzamido]spiro[3.3]heptan-2-yl]oxy}-5H,7H,8H-pyrano[4,3-b]pyridine-3-carboxamide]: the IC50 turned out to be 0.109 µM. This IC50 is about 1.8-fold higher than that of the molecule before. In turn, `Cc1nc(NCC(C)(C)O)sc1C(=O)N[C@H]1C[C@]2(C1)C[C@H](Oc1nc3c(cc1C(N)=O)COCC3)C2` (some centres unmarked) [Example 144, 2-[(2-hydroxy-2-methylpropyl)amino]-4-methyl-N-[(4s)-6-({3-carbamoyl-5H,7H,8H-pyrano[4,3-b]pyridin-2-yl}oxy)spiro[3.3]heptan-2-yl]-1,3-thiazole-5-carboxamide] yielded an IC50 of 0.367 µM. With `Cc1nc(NCC(C)C)sc1C(=O)N[C@H]1C[C@]2(C1)C[C@H](Oc1nc3c(cc1C(N)=O)COCC3)C2` (some centres unmarked) [Example 145, 4-methyl-2-[(2-methylpropyl)amino]-N-[(4s)-6-({3-carbamoyl-5H,7H,8H-pyrano[4,3-b]pyridin-2-yl}oxy)spiro[3.3]heptan-2-yl]-1,3-thiazole-5-carboxamide], the IC50 stood at 0.111 µM.
